Measurements from the supplement of paper PMC10307832.

Legend:
Assay in all cases: relative viability (nuclei count vs DMSO), 5 days (fraction); higher = more cells survive
[1] = compound: C1CSC2=C(C(=O)N1)SC3=C2C=C(C=C3)O [kb NB 142-70] + CCNC(=O)c1noc(-c2cc(C(C)C)c(O)cc2O)c1-c1ccc(CN2CCOCC2)cc1 [Luminespib] (partner 0.01 µM)
In short: (§1)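 Lung cancer cell lines in 1536-well plates got either a single drug or a fixed anchor-drug dose together with five library-drug doses (not always all listed) in √10 steps, by pin tool, on the day after seeding. Nuclei were counted after 5 days, and relative viability is the treated-to-vehicle ratio of nuclei counts. Values are medians of duplicate plates.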

kb NB 142-70 + AZD7762 = compound: C1CSC2=C(C(=O)N1)SC3=C2C=C(C=C3)O [kb NB 142-70] + NC(=O)Nc1cc(-c2cccc(F)c2)sc1C(=O)N[C@H]1CCCNC1 [AZD7762] (partner 0.2 µM)
In short: as §1

[2] = compound: C1CSC2=C(C(=O)N1)SC3=C2C=C(C=C3)O [kb NB 142-70] + CC(C)C[C@H](NC(=O)[C@H](Cc1ccccc1)NC(=O)c1cnccn1)B(O)O [Bortezomib] (partner 0.002 µM)
In short: as §1

[3] = compound: NCC(=O)Nc1ccc(-n2nc(C(F)(F)F)cc2-c2ccc3c(ccc4ccccc43)c2)cc1 + CC(=O)c1c(C)c2cnc(Nc3ccc(N4CCNCC4)cn3)nc2n(C2CCCC2)c1=O [Palbociclib] (partner 0.5 µM)
In short: as §1

[4] = compound: C1CSC2=C(C(=O)N1)SC3=C2C=C(C=C3)O [kb NB 142-70] + O=C(CCCCCCC(=O)Nc1ccccc1)NO [Vorinostat] (partner 1 µM)
In short: as §1

Cell Line	relative viability ([1]; first compound 0.1 µM)	relative viability ([1]; first compound 1 µM)	relative viability ([1]; first compound 3.162 µM)	relative viability (kb NB 142-70 + AZD7762; first compound 0.1 µM)	relative viability (kb NB 142-70 + AZD7762; first compound 1 µM)	relative viability (kb NB 142-70 + AZD7762; first compound 3.162 µM)	relative viability ([2]; first compound 0.1 µM)	relative viability ([2]; first compound 1 µM)	relative viability ([2]; first compound 3.162 µM)	relative viability ([3]; first compound 0.02 µM)	relative viability ([3]; first compound 0.06325 µM)	relative viability ([3]; first compound 0.2 µM)	relative viability ([3]; first compound 0.6325 µM)	relative viability ([3]; first compound 2 µM)	relative viability ([4]; first compound 0.1 µM)	relative viability ([4]; first compound 1 µM)	relative viability ([4]; first compound 3.162 µM)
HCC-44	1.03	1	0.405	0.99	1.06	1.06	0.952	0.94	0.899	1.04	0.961	0.994	0.977	0.962	1.09	1.14	1.21
HCC-827	0.589	0.59	0.373	0.233	0.195	0.255	1.09	1.02	0.978	0.501	0.545	0.509	0.486	0.504	0.763	0.864	0.88
NCI-H1623	0.427	0.476	0.594	–	–	–	–	–	–	–	–	–	–	–	–	–	–
NCI-H2347	0.387	0.431	0.387	0.873	0.924	0.737	1.03	0.808	1.07	0.426	0.384	0.448	0.473	0.419	0.629	0.641	0.599
PC-14	0.149	0.173	0.13	0.353	0.295	0.408	0.896	0.932	0.82	0.494	0.557	–	0.524	0.46	0.857	0.755	0.633
NCI-H1651	0.926	0.856	0.354	0.488	0.448	0.547	0.966	0.863	0.857	0.508	0.555	0.497	0.539	0.541	0.543	0.579	0.566
HARA	0.625	0.769	0.456	0.292	0.393	1.07	1.15	1.06	0.964	0.258	0.173	0.287	0.294	0.256	0.449	0.438	0.563
NCI-H1650	0.204	0.19	0.18	–	–	–	0.179	0.206	0.203	0.377	0.37	0.225	0.319	0.343	0.656	0.569	0.425
NCI-H1395	0.79	0.69	0.464	0.4	0.428	0.501	–	–	–	0.702	0.678	0.617	0.621	0.614	0.7	0.748	0.701
LU99A	0.272	0.246	0.265	0.386	0.493	0.462	1.29	0.995	0.732	0.418	0.474	0.434	0.487	0.438	0.486	0.443	0.33
NCI-H1355	0.733	0.683	0.553	0.776	0.81	1	1.24	1.16	1.22	0.426	0.43	0.393	0.408	0.405	0.605	0.643	0.657
HCC-78	–	–	–	0.616	0.629	0.684	0.486	0.543	0.556	0.541	0.482	0.526	0.403	0.496	0.407	0.602	0.483
NCI-H1563	0.597	0.498	0.538	–	–	–	0.921	0.84	0.956	–	–	–	–	–	–	–	–
HCC-15	0.195	0.605	0.393	1.2	1.29	1.28	0.972	1.1	1.1	0.714	0.732	0.763	0.742	0.749	0.812	0.816	0.801
EKVX	0.81	0.857	0.943	0.739	0.704	0.684	0.994	1.05	0.993	0.436	0.417	0.397	0.348	0.382	0.677	0.481	0.814
NCI-H2087	0.183	0.164	0.116	1.38	1.45	1.18	0.821	0.88	0.755	0.256	0.278	0.262	0.249	0.24	0.506	0.687	0.423
LK-2	0.206	0.215	0.173	0.308	0.319	0.329	–	–	–	0.538	0.831	0.539	0.675	0.636	0.417	0.279	0.219
NCI-H1437	1.12	1.1	0.932	1.14	1.12	1	0.485	0.492	0.482	0.331	0.328	0.3	0.341	0.307	0.857	0.895	0.77
COR-L23	0.665	0.524	0.159	–	–	–	0.872	0.913	0.51	0.297	0.293	0.346	0.261	0.245	0.515	0.428	0.214
ABC-1	0.536	0.487	0.336	0.936	0.927	0.758	0.373	0.278	0.239	0.725	0.592	–	0.807	0.658	1.13	0.975	0.453
